Starred links: 1 amine or outer side, 2 acyl side, 3 side chain; linkers in the order of their positions; H or OH if unused. Non-standard residues stand in square brackets, D forms with d. Residues, ends and D or L forms follow the SMILES beside them. *: point of attachment. X2 = CCCC(N[*:1])C(=O)C(=O)[*:2]; Tic = O=C(O)[C@@H]1Cc2ccccc2CN1; Chg = N[C@H](C(=O)O)C1CCCCC1; Phg = N[C@H](C(=O)O)c1ccccc1; Boc = CC(C)(C)OC(=O)*
Columns and labels:
melanoma A375 tumors = melanoma A375 tumors implanted into the left ventricle of the heart; cited from earlier work
Human Liver Cathepsin L = target: T1, Human Liver Cathepsin L (Homo sapiens, UniProt P07711); assay: Cathepsin L inhibition assay (kinetic, Z-Phe-Arg-pNA substrate); assay type: biochemical; details: Z-Phe-Arg-pNA 120 μM, enzyme 12 nM, pH 5.5, read at 410 nm
T1 construct: purchased Calbiochem 219402
T1 sequence (P07711 114-288 limits assumed): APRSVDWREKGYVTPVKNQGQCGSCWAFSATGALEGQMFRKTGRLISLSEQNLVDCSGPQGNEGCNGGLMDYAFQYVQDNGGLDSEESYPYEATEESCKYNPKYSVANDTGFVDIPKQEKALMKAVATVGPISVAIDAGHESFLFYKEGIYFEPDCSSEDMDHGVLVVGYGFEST
T1 sequence (P07711 292-333 limits assumed): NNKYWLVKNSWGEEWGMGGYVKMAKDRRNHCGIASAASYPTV
Method: Cathepsin Assay Protocols:
• 1. 96-well Round or V-bottom microplates for dilutions • 2. 96-well COSTAR UV microplates for assay (COSTAR cat.#3635) • 3. Bio-Spin 6 Chromatography Columns (BIO-RAD cat.#732-6002). • 4. 12-75 mm test tubes • 5. Falcon 50 ml tubes • 6. Falcon 14 ml tubes • 7. 1.5 ml eppendorf tube • 8. ≦10 ml buffer reservoir Reagents: • 1. Enzyme: Cathepsin G, M.W.23,500, 10 μM stock. • 2. Substrate:Suc-Ala-Ala-Pro-Phe-pNA, M.W. 624.65, prep. 100 mM [62.465 mg/ml] stock. • 3. Buffer: [50 mM HEPES, 500 mM NaCl, 5 μM EDTA, pH 7.14], 5 μM DTT Instrument Settings: SpectraMax Plus • 1. Kinetic assay reading@405 nm • 2. Read interval: 30 seconds • 3. Time: 1 hour • 4. OD Min: −0.001 • 5. OD Max: 0.5 • 6. Data Mode: Absorbance • 7. e405=194.078 μM/O.D. Procedure: • 1. Add 73 μl of buffer to all wells. • 2. Add […] of buffer to (−E) controls. • 3. Add 7 μl of sample and/or DMSO for controls to appropriate wells. • 4. Prep. substrate: 100 mM (62.465 mg/ml) stock in 100% DMSO. • 5. Dilute 1:20 in buffer. 75 μl in 1.425 ml. 5 mM final. • 6. Add 20 μl of 5 mM substrate to all wells. 500 μM final. • 7. Dilute enzyme (1:50) in buffer; Add 120 μl to 5,880 μl buffer. 2×[200 nM] final. • 8. Add 100 μl of 2× [200 nM] enzyme to assigned wells, except (−E) controls. [100 nM] final. • 11. Vortex 20 seconds. Read@ 405 nM every 30 seconds for 1 hour on SpectraMax Plus • Endpoint assay reading plate@ 600 nM. Used for the detection of precipitation. Cathepsin H: Materials: • 1. 96-well Round or V-bottom microplates for dilutions • 2. 96-well COSTAR UV microplates for assay (COSTAR cat.#3635) • 3. Bio-Spin 6 Chromatography Columns (BIO-RAD cat.#732-6002) • 4. 12-75 mm test tubes • 5. Falcon 50 ml tubes • 6. Falcon 14 ml tubes • 7. 1.5 ml eppendorf tube • 8. ≧10 ml buffer reservoir Reagents: • 1. Enzyme: Cathepsin H, M.W.28,000, 9.07 μM stock. • 2. Substrate:H-Arg-pNA, M.W. 367.2, prep. 50 mM [18.36 mg/ml] stock. • 3. Buffer: [100 mM NaP04, 1 mM EDTA, 1 mM DTT, pH 6.5 Instrument Settings: SpectraMax Plus • 1. Kinetic assay reading@410 nM • 2. Read interval: 30 seconds • 3. Time: 1 hour • 4. OD Min: −0.001 • 5. OD Max: 0.05 • 6. Data Mode: Absorbance • 7. e410=188.415 μM/O.D. Km=108±5 μM Procedure: • 1. Prep. substrate: 50 mM (18.36 mg/ml) stock in 100% DMSO. • 2. Add 73 μl of buffer to all wells. • 3. Add 7 μl of sample to appropriate wells: a.) 100% DMSO for (+E) & (−E) controls. • 4. Add 100 μl of buffer to (−E) controls. • 5. Dilute substrate (1:20) in buffer; Add 140 μl to 2.66 ml buffer while vortexing. [2.5 mM] final. • 6. Add 20 μl of substrate to all wells. Vortex 3-5 seconds. [250 μM] final. • 7. Dilute enzyme (1:64.8) in buffer; Add 179 μl to 11.418 ml buffer. 2× [140 nM] final. • 8. Add 100 μl of 2× [140 nM] enzyme to assigned wells, except (−E) controls. [70 nM] final. • 9. Read@410 nM every 30 seconds for 1 hour on SpectraMax Plus Cathepsin L: Materials: • 1. 96-well Round or V-bottom microplates for dilutions • 2. 96-well COSTAR UV microplates for assay (COSTAR cat.#3635) • 3. Falcon 50 ml tubes • 4. Falcon 14 ml tubes • 5. 1.5 ml eppendorf tube • 6. 10 ml buffer reservoir Reagents: • 1. Enzyme: Calbiochem #219402: Cathepsin L, M.W.29,000, 11.62 μM stock. Lot#B45683 • 2. Substrate: Bachem #L-1242: Z-Phe-Arg-pNA, M.W. 612.09, prep. 4.8 mM [2.938 mg/ml] stock in 100% DMSO. • 3. Buffer: [100 mM NaP04, 1 mM EDTA, pH 5.5] Supplement buffer w/1 mM DTT, day of assay. Experiment #1: • Instrument settings: SpectraMax Plus microtiter plate reader (Molecular Devices, Sunnydale, Calif.) • 1. Kinetic assay reading@410 nM • 2. Read interval: 30 seconds • 3. Time: 1 hour • 4. OD Min: −0.001 • 5. OD Max: 0.05 • 6. Data Mode: Absorbance • 7. ε410=161.311 μM/O.D. Km=56±8 μM Procedure: • 1. Add 88 μl of buffer to all wells. • 2. Add 7 μl of sample or 100% DMSO to appropriate wells. • 3. Add 100 μl of buffer to (−E) controls. • 5. Add 5 μ 4.8 mM] substrate to all wells. [120 μM] final. • 6. Vortex 3-5 seconds. • 7. Dilute enzyme (1:483.87) in buffer; Add 24.8 μl to 12,000 μl buffer. 2×[24 nM] final. • 8. […]

Ki (Human Liver Cathepsin L) [nM]	Compound	distant bone metastasis to the femur and tibia (melanoma A375 tumors)
	CN(C)C(=O)[C@H](Cc1ccccc1)NC(=O)[C@H]1O[C@@H]1C(=O)NCCc1ccccn1 [CLIK-148]	reduced distant bone metastasis
40	CCCC[C@H](NC(=O)[C@@H]1[C@@H]2[C@H](CN1C(=O)[C@@H](NC(=O)NC1(CS(=O)(=O)C(C)(C)C)CCCCC1)C(C)(C)C)C2(C)C)C(=O)C(=O)NC1CC1 [drawing 667]	
230	C=CCNC(=O)C(=O)[C@@H]1CCCCCCCCC[C@H](NC(=O)NC2(CS(=O)(=O)C(C)(C)CC)CCCCC2)C(=O)N2C[C@H]3[C@@H]([C@H]2C(=O)N1)C3(C)C	
550	CC(C)(C)OC(=O)N[C@H]1CCCCCCCC[C@@H](C(=O)C(N)=O)NC(=O)[C@@H]2[C@@H]3[C@H](CN2C1=O)C3(C)C	
9	CC(=O)N[C@@H](CC(C)C)C(=O)N[C@@H](CC(C)C)C(=O)N[C@H](C=O)CCCNC(=N)N [drawing 687]	
36	CCCC(NC(=O)[C@@H]1Cc2ccccc2CN1C(=O)[C@@H](NC(=O)OC(C)(C)C)C1CCCCC1)C(=O)C(=O)NCC(=O)N[C@H](C(=O)NC)c1ccccc1 (stereo partly shown) (Boc-[Chg][Tic][X2]G[Phg]-NHMe)	
190	CN(C)C(=O)c1nc(CNC(=O)C(=O)C(CC2CCC2)NC(=O)[C@@H]2[C@@H]3[C@H](CN2C(=O)[C@@H](NC(=O)NC(C)(C)C)C(C)(C)C)C3(C)C)sc1-c1ccccc1 (stereo partly shown)	
